Results as given in patent US20030135023A1, “Peptide structures useful for competitive modulation of dipeptidyl peptidase IV catalysis” (priority 2001, published 2003).
Square brackets hold non-standard residues; d marks the D form. Peptide text beside a SMILES is read from it. Tle = CC(C)(C)[C@H](N)C(=O)O

Molecular target: purified porcine DP IV (Sus scrofa, UniProt P22411)
Assay: Determination of IC50-values, Gly-Pro-pNA cleavage by DP IV
Format: biochemical
Settings: Gly-Pro-pNA 0.4 mM, HEPES pH 7.6, 30° C.; read-out: IC50
Method: 100 μl inhibitor stock solution were mixed with 100 μl buffer (HEPES pH 7.6) and 50 μl substrate (Gly-Pro-pNA, final concentration 0.4 mM) and preincubated at 30° C. Reaction was started by addition of 20 μl purified porcine DP IV. Formation of the product pNA was measured at 405 nm over 10 min using the HTS 7000 Plus plate reader (Perkin Elmer) and slopes were calculated. The final inhibitor concentrations ranged between 1 mM and 30 nM.
For calculation of IC50-values GraFit 4.0.13 (Erithacus Software) was used.

purified porcine DP IV, sequence (P22411 whole entry): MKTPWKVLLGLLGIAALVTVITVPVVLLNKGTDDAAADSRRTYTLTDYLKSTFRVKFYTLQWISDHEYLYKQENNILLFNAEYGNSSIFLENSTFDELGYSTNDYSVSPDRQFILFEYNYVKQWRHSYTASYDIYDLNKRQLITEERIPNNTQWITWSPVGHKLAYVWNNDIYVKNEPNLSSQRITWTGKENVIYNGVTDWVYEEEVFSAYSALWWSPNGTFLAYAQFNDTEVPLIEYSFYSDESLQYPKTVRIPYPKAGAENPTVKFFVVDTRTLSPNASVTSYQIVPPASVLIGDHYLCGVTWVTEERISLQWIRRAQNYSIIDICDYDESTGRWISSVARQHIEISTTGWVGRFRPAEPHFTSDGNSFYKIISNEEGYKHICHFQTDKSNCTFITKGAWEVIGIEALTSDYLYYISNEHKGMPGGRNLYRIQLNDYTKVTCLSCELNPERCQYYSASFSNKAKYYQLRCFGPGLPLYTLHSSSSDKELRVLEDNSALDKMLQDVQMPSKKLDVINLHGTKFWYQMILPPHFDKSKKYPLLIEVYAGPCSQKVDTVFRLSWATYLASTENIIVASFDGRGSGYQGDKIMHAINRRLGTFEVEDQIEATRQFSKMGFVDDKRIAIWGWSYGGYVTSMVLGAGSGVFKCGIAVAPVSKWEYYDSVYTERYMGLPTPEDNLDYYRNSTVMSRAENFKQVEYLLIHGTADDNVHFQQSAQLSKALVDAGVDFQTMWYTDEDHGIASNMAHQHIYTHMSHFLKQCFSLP

Work on `CC[C@H](C)[C@H](NC(=O)[C@@H]1CCCN1C(=O)[C@@H](N)C(C)(C)C)C(=O)O` [t-butyl-Gly-Pro-Ile] (H-[Tle]-Pro-Ile-OH; N-terminus and C-terminus assumed) yielded an IC50 of 9.34 µM.
